Laboratory results: patent publication US12162840B2, “Herbicidal compositions” (SYNGENTA PARTICIPATIONS AG, priority 2018, dated 2024)

Test system: cool season plant species
Assay: B2 Post-emergence efficacy Test 2, cool season plant species
Assay type: in vivo
Conditions: 15 days after application, 0=no damage, 100=total kill
Experimental: Seeds of a variety of test species (see Table B1) were sown in standard soil in pots. After cultivation for 12 days (post-emergence) under controlled conditions in a glasshouse (at 24/18° C. or 20/16° C., at day/night; 16 hours light; 65% humidity), the plants were sprayed with an aqueous spray solution derived from the formulation of the technical active ingredient dissolved in IF50 (see Table B2 for composition) and adjuvant (Genapol XO80) was added to the spray solution at a rate of 0.2% v/v. [table] [table] After application, the test plants were grown in a glasshouse under controlled conditions (as above) and watered twice daily. Herbicidal activity was evaluated 15 days after application on a 0-100 scale. The results, where 0=no damage to test plant and 100=total kill of test plant are shown below in Tables 6 to 9.

Structure (SMILES): Cc1nn(C)c(=O)c(-c2c(F)ccc(Cl)c2CCc2ccc(Cl)cc2)c1OC(=O)C(C)C [Compound 1.089]
- Herbicidal activity (0-100 scale) ALOMY (15 g/Ha): 20
- Herbicidal activity (0-100 scale) ALOMY (30 g/Ha): 50
- Herbicidal activity (0-100 scale) ALOMY (60 g/Ha): 50
- Herbicidal activity (0-100 scale) ALOMY (125 g/Ha): 80
- Herbicidal activity (0-100 scale) ALOMY (250 g/Ha): 80
- Herbicidal activity (0-100 scale) ALOMY (500 g/Ha): 90
- Herbicidal activity (0-100 scale) AVEFA (15 g/Ha): 30
- Herbicidal activity (0-100 scale) AVEFA (30 g/Ha): 70
- Herbicidal activity (0-100 scale) AVEFA (60 g/Ha): 70
- Herbicidal activity (0-100 scale) AVEFA (125 g/Ha): 80
- Herbicidal activity (0-100 scale) AVEFA (250 g/Ha): 90
- Herbicidal activity (0-100 scale) AVEFA (500 g/Ha): 90
- Herbicidal activity (0-100 scale) BEAVA (15 g/Ha): 90
- Herbicidal activity (0-100 scale) BEAVA (30 g/Ha): 80
- Herbicidal activity (0-100 scale) BEAVA (60 g/Ha): 80
- Herbicidal activity (0-100 scale) BEAVA (125 g/Ha): 80
- Herbicidal activity (0-100 scale) BEAVA (250 g/Ha): 90
- Herbicidal activity (0-100 scale) BEAVA (500 g/Ha): 90
- Herbicidal activity (0-100 scale) BROTE (15 g/Ha): 0
- Herbicidal activity (0-100 scale) BROTE (30 g/Ha): 0
- Herbicidal activity (0-100 scale) BROTE (60 g/Ha): 10
- Herbicidal activity (0-100 scale) BROTE (125 g/Ha): 30
- Herbicidal activity (0-100 scale) BROTE (250 g/Ha): 60
- Herbicidal activity (0-100 scale) BROTE (500 g/Ha): 70
- Herbicidal activity (0-100 scale) BRSNN (15 g/Ha): 80
- Herbicidal activity (0-100 scale) BRSNN (30 g/Ha): 80
- Herbicidal activity (0-100 scale) BRSNN (60 g/Ha): 90
- Herbicidal activity (0-100 scale) BRSNN (125 g/Ha): 90
- Herbicidal activity (0-100 scale) BRSNN (250 g/Ha): 90
- Herbicidal activity (0-100 scale) BRSNN (500 g/Ha): 90
- Herbicidal activity (0-100 scale) CHEAL (15 g/Ha): 80
- Herbicidal activity (0-100 scale) CHEAL (30 g/Ha): 90
- Herbicidal activity (0-100 scale) CHEAL (60 g/Ha): 90
- Herbicidal activity (0-100 scale) CHEAL (125 g/Ha): 100
- Herbicidal activity (0-100 scale) CHEAL (250 g/Ha): 100
- Herbicidal activity (0-100 scale) CHEAL (500 g/Ha): 100
- Herbicidal activity (0-100 scale) GALAP (15 g/Ha): 10
- Herbicidal activity (0-100 scale) GALAP (30 g/Ha): 20
- Herbicidal activity (0-100 scale) GALAP (125 g/Ha): 30
- Herbicidal activity (0-100 scale) GALAP (250 g/Ha): 30
- Herbicidal activity (0-100 scale) GALAP (500 g/Ha): 90
- Herbicidal activity (0-100 scale) HORVW (15 g/Ha): 10
- Herbicidal activity (0-100 scale) HORVW (30 g/Ha): 10
- Herbicidal activity (0-100 scale) HORVW (60 g/Ha): 20
- Herbicidal activity (0-100 scale) HORVW (125 g/Ha): 20
- Herbicidal activity (0-100 scale) HORVW (250 g/Ha): 30
- Herbicidal activity (0-100 scale) HORVW (500 g/Ha): 60
- Herbicidal activity (0-100 scale) KCHSC (15 g/Ha): 10
- Herbicidal activity (0-100 scale) KCHSC (30 g/Ha): 20
- Herbicidal activity (0-100 scale) KCHSC (60 g/Ha): 50
- Herbicidal activity (0-100 scale) KCHSC (125 g/Ha): 60
- Herbicidal activity (0-100 scale) KCHSC (250 g/Ha): 60
- Herbicidal activity (0-100 scale) KCHSC (500 g/Ha): 60
- Herbicidal activity (0-100 scale) LOLPE (15 g/Ha): 40
- Herbicidal activity (0-100 scale) LOLPE (30 g/Ha): 70
- Herbicidal activity (0-100 scale) LOLPE (60 g/Ha): 80
- Herbicidal activity (0-100 scale) LOLPE (125 g/Ha): 90
- Herbicidal activity (0-100 scale) LOLPE (250 g/Ha): 90
- Herbicidal activity (0-100 scale) LOLPE (500 g/Ha): 90
- Herbicidal activity (0-100 scale) POAAN (15 g/Ha): 20
- Herbicidal activity (0-100 scale) POAAN (30 g/Ha): 40
- Herbicidal activity (0-100 scale) POAAN (60 g/Ha): 70
- Herbicidal activity (0-100 scale) POAAN (125 g/Ha): 90
- Herbicidal activity (0-100 scale) POAAN (250 g/Ha): 80
- Herbicidal activity (0-100 scale) POAAN (500 g/Ha): 70
- Herbicidal activity (0-100 scale) SINAR (15 g/Ha): 70
- Herbicidal activity (0-100 scale) SINAR (30 g/Ha): 80
- Herbicidal activity (0-100 scale) SINAR (60 g/Ha): 90
- Herbicidal activity (0-100 scale) SINAR (125 g/Ha): 90
- Herbicidal activity (0-100 scale) SINAR (250 g/Ha): 90
- Herbicidal activity (0-100 scale) SINAR (500 g/Ha): 90
- Herbicidal activity (0-100 scale) STEME (15 g/Ha): 90
- Herbicidal activity (0-100 scale) STEME (30 g/Ha): 90
- Herbicidal activity (0-100 scale) STEME (60 g/Ha): 90
- Herbicidal activity (0-100 scale) STEME (125 g/Ha): 90
- Herbicidal activity (0-100 scale) STEME (250 g/Ha): 90
- Herbicidal activity (0-100 scale) STEME (500 g/Ha): 90
- Herbicidal activity (0-100 scale) TRZAW (15 g/Ha): 0
- Herbicidal activity (0-100 scale) TRZAW (30 g/Ha): 0
- Herbicidal activity (0-100 scale) TRZAW (60 g/Ha): 20
- Herbicidal activity (0-100 scale) TRZAW (125 g/Ha): 30
- Herbicidal activity (0-100 scale) TRZAW (250 g/Ha): 60
- Herbicidal activity (0-100 scale) TRZAW (500 g/Ha): 70
- Herbicidal activity (0-100 scale) VERPE (15 g/Ha): 70
- Herbicidal activity (0-100 scale) VERPE (30 g/Ha): 80
- Herbicidal activity (0-100 scale) VERPE (60 g/Ha): 90
- Herbicidal activity (0-100 scale) VERPE (125 g/Ha): 90
- Herbicidal activity (0-100 scale) VERPE (250 g/Ha): 100
- Herbicidal activity (0-100 scale) VERPE (500 g/Ha): 100
